Experimental data published in ChEMBL document CHEMBL1133301, “Beta-keto-ester chemistry and ketolides. Synthesis and antibacterial activity of 2-halogeno, 2-methyl and 2,3 enol-ether ketolides” (2000).
In brackets after ≈: the same amount, converted by molar mass.

What was measured:
Format in all cases: functional
[1] = test system: Haemophilus influenzae; experiment: The compound has been evaluated for the antibacterial activity against Haemophilus influenzae 351HT3 (beta-lactamase +)
[2] = test system: Streptococcus pyogenes; experiment: The compound has been evaluated for the antibacterial activity against Streptococcus pyogenes EryS 02A1UC1.
[3] = test system: Staphylococcus aureus; experiment: The compound has been evaluated for the antibacterial activity against Staphylococcus aureus EryRi 011GO25i strains
[4] = test system: Staphylococcus aureus; experiment: The compound has been evaluated for the antibacterial activity against Staphylococcus aureus EryS 011UC4 strains
[5] = test system: Streptococcus pneumoniae; experiment: The compound has been evaluated for the antibacterial activity against Streptococcus pneumoniae EryS 032UC1 strains
[6] = test system: Staphylococcus aureus; experiment: The compound has been evaluated for the antibacterial activity against Staphylococcus aureus EryRc 011CB20 strains
[7] = test system: Streptococcus pneumoniae; experiment: The compound has been evaluated for the antibacterial activity against Streptococcus pneumoniae Ery Ri 030SJ 5i strains
[8] = test system: Streptococcus pneumoniae; experiment: The compound has been evaluated for the antibacterial activity against Streptococcus pneumoniae EryRc 030PW23c strains
[9] = test system: Streptococcus pneumoniae; experiment: The compound has been evaluated for the antibacterial activity against Streptococcus pneumoniae EryRc 030SJ1 strains
[10] = test system: Mus musculus; experiment: The compound has been evaluated for the in vivo efficacy that protect 50% of mice from lethal infection of Staphylococcus aureus EryS 011HT17 strains after oral administration
[11] = test system: Mus musculus; experiment: The compound has been evaluated for the in vivo efficacy that protect 50% of mice from lethal infection of Streptococcus Pneumoniae EryRc 030MV2 strains after oral administration
[12] = test system: Mus musculus; experiment: The compound has been evaluated for the in vivo efficacy that protect 50% of mice from lethal infection of Streptococcus Pneumoniae EryRi 030SJ5i strains after oral administration
[13] = test system: Mus musculus; experiment: The compound has been evaluated for the in vivo efficacy that protect 50%of mice from lethal infection of Haemophilus influenzae AmpR 351RD7 after oral administration
[14] = test system: Mus musculus; experiment: The compound has been evaluated for the in vivo efficacy that protect 50% of mice from lethal infection of Streptococcus Pneumonia EryS 032UC1 strain after oral administration
[15] = test system: Mus musculus; experiment: The compound has been evaluated for the in vivo efficacy that protect 50% of mice from lethal infection by Streptococcus Pneumonia EryS 032UC1 strain after oral administration
[16] = test system: Mus musculus; experiment: The compound has been evaluated for the in vivo efficacy that protect 50% of mice from lethal infection by Streptococcus Pneumoniae EryRc 030MV2 strains after oral administration
[17] = test system: Mus musculus; experiment: The compound has been evaluated for the in vivo efficacy that protect 50% of mice from lethal infection by Streptococcus Pneumoniae EryRi 030SJ5i strains after oral administration
[18] = test system: Mus musculus; experiment: The compound has been evaluated for the in vivo efficacy that protect 50%of mice from lethal infection by Haemophilus influenzae AmpR 351RD7 after oral administration
[19] = test system: Mus musculus; experiment: The compound has been evaluated for the in vivo efficacy that protect 50% of mice from lethal infection by Staphylococcus aureus EryS 011HT17 strains after oral administration

| SMILES | MIC [1] [µg/mL] | MIC [2] [µg/mL] | MIC [3] [µg/mL] | MIC [4] [µg/mL] | MIC [5] [µg/mL] | MIC [6] [µg/mL] | MIC [7] [µg/mL] | MIC [8] [µg/mL] | MIC [9] [µg/mL] | ED50 [10] [mg/kg] | ED50 [11] [mg/kg] | ED50 [12] [mg/kg] | ED50 [13] [mg/kg] | ED50 [14] [mg/kg] | ED50 [15] [mg/kg] | ED50 [16] [mg/kg] | ED50 [17] [mg/kg] | ED50 [18] [mg/kg] | ED50 [19] [mg/kg] |
| --- | --- | --- | --- | --- | --- | --- | --- | --- | --- | --- | --- | --- | --- | --- | --- | --- | --- | --- | --- |
| CC[C@H]1OC(=O)[C@H](C)[C@@H](O[C@H]2C[C@@](C)(OC)[C@@H](O)[C@H](C)O2)[C@H](C)[C@@H](O[C@@H]2O[C@H](C)C[C@H](N(C)C)[C@H]2O)[C@](C)(O)C[C@@H](C)CN(C)[C@H](C)[C@@H](O)[C@]1(C)O [AZITHROMYCIN] | 1.2 (≈ 1.6 µM) | 0.6 (≈ 0.801 µM) | > 40 | 0.3 (≈ 0.401 µM) | 0.15 (≈ 0.2 µM) | > 40 | > 40 | > 40 | > 40 | 72 | > 50 | > 50 | 94 | 4.5 | – | – | – | – | – |
| CC[C@H]1OC(=O)/C(C)=C(/OCOCCCc2ccccc2)[C@H](C)[C@@H](O[C@@H]2O[C@H](C)C[C@H](N(C)C)[C@H]2O)[C@](C)(OC)C[C@@H](C)C(=O)[C@H](C)[C@H]2N(CCCCn3cnc(-c4cccnc4)c3)C(=O)O[C@]12C | > 40 | 0.15 (≈ 0.156 µM) | > 40 | 5 (≈ 5.21 µM) | 0.8 (≈ 0.833 µM) | > 40 | 20 (≈ 20.8 µM) | 20 (≈ 20.8 µM) | 20 (≈ 20.8 µM) | – | – | – | – | – | – | – | – | – | – |
| CC[C@H]1OC(=O)C(C)(Cl)C(=O)[C@H](C)[C@@H](O[C@@H]2O[C@H](C)C[C@H](N(C)C)[C@H]2O)[C@](C)(OC)C[C@@H](C)C(=O)[C@H](C)[C@H]2N(CCCCn3cnc(-c4cccnc4)c3)C(=O)O[C@]12C (stereo partly specified) | 2.5 (≈ 2.95 µM) | 0.04 (≈ 0.0473 µM) | > 40 | 0.6 (≈ 0.709 µM) | 0.04 (≈ 0.0473 µM) | > 40 | 0.6 (≈ 0.709 µM) | 1.2 (≈ 1.42 µM) | 5 (≈ 5.91 µM) | – | – | – | – | – | – | – | – | – | – |
| CC[C@H]1OC(=O)[C@@](C)(F)C(=O)[C@H](C)[C@@H](O[C@@H]2O[C@H](C)C[C@H](N(C)C)[C@H]2O)[C@](C)(OC)C[C@@H](C)C(=O)[C@H](C)[C@H]2N(CCCCn3cnc(-c4cccnc4)c3)C(=O)O[C@]12C | 1.2 (≈ 1.45 µM) | < 0.02 | 0.08 (≈ 0.0964 µM) | 0.02 (≈ 0.0241 µM) | < 0.02 | > 40 | < 0.02 | < 0.02 | < 0.02 | – | – | – | – | – | 1.5 | 2 | 4.3 | 56 | 9 |
| CC[C@H]1OC(=O)/C(C)=C(/OCOCCN(C)C)[C@H](C)[C@@H](O[C@@H]2O[C@H](C)C[C@H](N(C)C)[C@H]2O)[C@](C)(OC)C[C@@H](C)C(=O)[C@H](C)[C@H]2N(CCCCn3cnc(-c4cccnc4)c3)C(=O)O[C@]12C | 20 (≈ 21.9 µM) | 0.3 (≈ 0.329 µM) | 20 (≈ 21.9 µM) | 2.5 (≈ 2.74 µM) | 0.15 (≈ 0.164 µM) | > 40 | 5 (≈ 5.48 µM) | 2.5 (≈ 2.74 µM) | 10 (≈ 11 µM) | – | – | – | – | – | – | – | – | – | – |
| CC[C@H]1OC(=O)C(C)(C)C(=O)[C@H](C)[C@@H](O[C@@H]2O[C@H](C)C[C@H](N(C)C)[C@H]2O)[C@](C)(OC)C[C@@H](C)C(=O)[C@H](C)[C@H]2N(CCCCn3cnc(-c4cccnc4)c3)C(=O)O[C@]12C | 2.5 (≈ 3.03 µM) | 0.02 (≈ 0.0242 µM) | 1.2 (≈ 1.45 µM) | 0.6 (≈ 0.726 µM) | 0.02 (≈ 0.0242 µM) | > 40 | 0.6 (≈ 0.726 µM) | 2.5 (≈ 3.03 µM) | 2.5 (≈ 3.03 µM) | – | – | – | – | – | – | – | – | – | – |
| CC[C@H]1OC(=O)[C@H](C)C(=O)[C@H](C)[C@@H](O[C@@H]2O[C@H](C)C[C@H](N(C)C)[C@H]2O)[C@](C)(OC)C[C@@H](C)C(=O)[C@H](C)[C@H]2N(CCCCn3cnc(-c4cccnc4)c3)C(=O)O[C@]12C [TELITHROMYCIN] | 1.2 (≈ 1.48 µM) | < 0.02 | 0.08 (≈ 0.0985 µM) | 0.04 (≈ 0.0493 µM) | < 0.02 | > 40 | < 0.02 | 0.04 (≈ 0.0493 µM) | < 0.02 | – | – | – | – | – | – | – | – | – | – |
| CC[C@H]1OC(=O)/C(C)=C\[C@H](C)[C@@H](O[C@@H]2O[C@H](C)C[C@H](N(C)C)[C@H]2O)[C@](C)(OC)C[C@@H](C)C(=O)[C@H](C)[C@H]2N(CCCCn3cnc(-c4cccnc4)c3)C(=O)O[C@]12C | 2.5 (≈ 3.14 µM) | 0.02 (≈ 0.0251 µM) | 0.3 (≈ 0.377 µM) | 0.08 (≈ 0.101 µM) | 0.02 (≈ 0.0251 µM) | > 40 | 2.5 (≈ 3.14 µM) | 0.3 (≈ 0.377 µM) | 10 (≈ 12.6 µM) | – | – | – | – | – | – | – | – | – | – |
| CC[C@H]1OC(=O)[C@H](C)[C@@H](O[C@H]2C[C@@](C)(OC)[C@@H](O)[C@H](C)O2)[C@H](C)[C@@H](O[C@@H]2O[C@H](C)C[C@H](N(C)C)[C@H]2O)[C@](C)(OC)C[C@@H](C)C(=O)[C@H](C)[C@@H](O)[C@]1(C)O [CLARITHROMYCIN] | 5 (≈ 6.68 µM) | 0.008 (≈ 0.0107 µM) | > 40 | 0.3 (≈ 0.401 µM) | 0.04 (≈ 0.0535 µM) | > 40 | > 40 | > 40 | > 40 | – | – | – | – | – | 2 | > 50 | > 50 | > 150 | 12 |
